Values after ≈ are worked out from the molar mass of the structure shown. Like-named read-outs stand apart in the source and are kept apart here.
What was measured:
Str. pneumoniae A-9585 = assay: MIC, tube dilution, Streptococcus pneumoniae A9585; assay type: cell-based; settings: Streptococcus pneumoniae, A9585, Str. pneumoniae A9585; overnight 37° C., Nutrient Broth; read-out: Minimum Inhibitory Concentration (M.I.C.)
Excerpt: (§1) Representative compounds of the present invention were subjected to in vitro antibiotic screening against a variety of microorganisms.

Str. pyogenes A-9604 = assay: MIC, tube dilution, Streptococcus pyogenes A9604; assay type: cell-based; settings: Streptococcus pyogenes, A9604, Str. pyogenes A9604; overnight 37° C., Nutrient Broth; read-out: Minimum Inhibitory Concentration (M.I.C.)
Excerpt: as §1

Staph. aureus A-9537 = assay: MIC, tube dilution, Staphylococcus aureus A9537; assay type: cell-based; settings: Staphylococcus aureus, A9537, Staph. aureus A9537; overnight 37° C., Nutrient Broth; read-out: Minimum Inhibitory Concentration (M.I.C.)
Excerpt: as §1

[1] = system: Staph. aureus A-9537 and 50% serum; assay: MIC, tube dilution, Staph. aureus A9537 + 50% serum; assay type: cell-based, Staphylococcus aureus; settings: Staphylococcus aureus, overnight 37° C., read-out: Minimum Inhibitory Concentration (M.I.C.)
Excerpt: as §1

[2] = system: Staph. aureus (Pen-Res) A-9606; assay: MIC, tube dilution, Staphylococcus aureus A9606 (Pen-Res); assay type: cell-based; settings: Staph. aureus A9606 (Pen-Res), overnight 37° C.; for MIC: Staphylococcus aureus, read-out: Minimum Inhibitory Concentration (M.I.C.)
Excerpt: as §1

[3] = system: Staph. aureus (Meth-Res) A-15097; assay: MIC, tube dilution, Staphylococcus aureus A15097 (Meth-Res); assay type: cell-based; settings: Staph. aureus A15097 (Meth-Res), overnight 37° C.
Excerpt: as §1

Str. faecalis A-20688 = assay: MIC, tube dilution, Streptococcus faecalis A20688; assay type: cell-based; settings: overnight 37° C.; for Minimum Inhibitory Concentration (M.I.C.): Str. faecalis A20688
Excerpt: as §1

E. coli A-15119 = assay: MIC, tube dilution, Escherichia coli A15119; assay type: cell-based; settings: Escherichia coli, A15119, E. coli A15119; overnight 37° C.; read-out: Minimum Inhibitory Concentration (M.I.C.)
Excerpt: as §1

E. coli A-20341-1 = assay: MIC, tube dilution, Escherichia coli A20341-1; assay type: cell-based
Excerpt: as §1

K. pneumoniae A-15130 = assay: MIC, tube dilution, Klebsiella pneumoniae A15130; assay type: cell-based; settings: Klebsiella pneumoniae, A15130, K. pneumoniae A15130; overnight 37° C.; read-out: Minimum Inhibitory Concentration (M.I.C.)
Excerpt: as §1

[4] = system: Klebsiella species A20468; assay: MIC, tube dilution, Klebsiella species A20468; assay type: cell-based; settings: Klebsiella species (K. pneumoniae) A20468; overnight 37° C.; read-out: Minimum Inhibitory Concentration (M.I.C.)
Excerpt: as §1

Pr. mirabilis A-9900 = assay: MIC, tube dilution, Proteus mirabilis A9900; assay type: cell-based; settings: Proteus mirabilis, A9900, Proteus mirabilis A9900; overnight 37° C.; read-out: Minimum Inhibitory Concentration (M.I.C.)
Excerpt: as §1

Pr. vulgaris A-9716 = assay: MIC, tube dilution, Proteus vulgaris / Proteus mirabilis A9716; assay type: cell-based, Proteus vulgaris (name changed to Proteus mirabilis); settings: Proteus vulgaris, A9716, Proteus vulgaris / Proteus mirabilis A9716; overnight 37° C.; read-out: Minimum Inhibitory Concentration (M.I.C.)
Excerpt: as §1

Pr. morganii A-15153 = assay: MIC, tube dilution, Proteus morganii A15153; assay type: cell-based; settings: Morganella morganii, A15153, Proteus morganii A15153; overnight 37° C.; read-out: Minimum Inhibitory Concentration (M.I.C.)
Excerpt: as §1

Ser. marcescens A-20019 = assay: MIC, tube dilution, Serratia marcescens A20019; assay type: cell-based; settings: Serratia marcescens, A20019, Serratia marcescens A20019; overnight 37° C.; read-out: Minimum Inhibitory Concentration (M.I.C.)
Excerpt: as §1

Ent. cloacae A-9659 = assay: MIC, tube dilution, Enterobacter cloacae A9659; assay type: cell-based; settings: Enterobacter cloacae, A9659, Enterobacter cloacae A9659; overnight 37° C.; read-out: Minimum Inhibitory Concentration (M.I.C.)
Excerpt: as §1

Ent. cloacae A-9656 = assay: MIC, tube dilution, Enterobacter cloacae A9656; assay type: cell-based; settings: overnight 37° C.; for MIC: Enterobacter cloacae, A9656, Enterobacter cloacae A9656, read-out: Minimum Inhibitory Concentration (M.I.C.)
Excerpt: as §1

Ps. aeruginosa A-9843A = assay: MIC, tube dilution, Pseudomonas aeruginosa A9843A; assay type: cell-based; settings: Pseudomonas aeruginosa, A9843A, read-out: Minimum Inhibitory Concentration (M.I.C.), Pseudomonas aeruginosa A9843A; overnight 37° C.
Excerpt: as §1

Ps. aeruginosa A-21213 = assay: MIC, tube dilution, Pseudomonas aeruginosa A21213; assay type: cell-based; settings: Pseudomonas aeruginosa A21213; overnight 37° C.; read-out: Minimum Inhibitory Concentration (M.I.C.)
Excerpt: as §1

Proteus rettgeri A21203 = assay: MIC, tube dilution, Proteus rettgeri A21203; assay type: cell-based; settings: Providencia rettgeri, A21203, Proteus rettgeri A21203; overnight 37° C.; read-out: Minimum Inhibitory Concentration (M.I.C.)
Excerpt: as §1

S. aureus A9537 = assay: In vivo protection of mice, lethal infection with S. aureus A9537; settings: Staphylococcus aureus, A9537, im, IM, 2 treatments, 1.1 × 10^6 organisms; read-out: PD50
Protocol: Representative compounds of the present invention were also tested in vivo in mice and their PD50 (dose of compound in mg/kg required to protect 50% of the treated mice against an otherwise lethal infection of a micro-organism) values determined with respect to the test organisms shown below.

[5] = Mouse blood levels after intramuscular administration; assay type: in vivo; settings: average of 6 mice, read-out: Mouse blood level
Protocol: Mouse blood levels after intramuscular administration of representative compounds of the present invention were determined and are reported in the table below.

[6] = system: Providencia stuartii A21205; assay: MIC, tube dilution, Providencia stuartii (Pr. rettgeri) A21205; assay type: cell-based; settings: Providencia stuartii, A21205, Providencia stuartii (Pr. rettgeri) A21205; overnight 37° C.; read-out: Minimum Inhibitory Concentration (M.I.C.)
Excerpt: as §1

[7] = Escherichia coli, A203411; E. coli A20341-1; overnight 37° C.; read-out: Minimum Inhibitory Concentration (M.I.C.)

SMILES	MIC (Str. pyogenes A-9604)	MIC (Staph. aureus A-9537)	MIC [1]	MIC [2]	Minimum Inhibitory Concentration (M.I.C.) [3]	Minimum Inhibitory Concentration (M.I.C.) (Str. faecalis A-20688)	MIC (E. coli A-15119)	MIC (E. coli A-20341-1; [7])	MIC (K. pneumoniae A-15130)	MIC [4]	MIC (Pr. mirabilis A-9900)	MIC (Pr. morganii A-15153)	MIC (Ser. marcescens A-20019)	MIC (Ent. cloacae A-9659)	MIC (Ent. cloacae A-9656)	MIC (Ps. aeruginosa A-9843A)	MIC (Ps. aeruginosa A-21213)	other results
NCCCC1=C(C(=O)O)N2C(=O)CC2S1 (stereo not drawn) [Example 22, Sodium 2-Aminopropylpenem-3-carboxylate]	2 µg/mL	2 µg/mL	63 µg/mL	63 µg/mL	125 µg/mL	125 µg/mL	16 µg/mL	125 µg/mL	32 µg/mL	> 125 µg/mL	16 µg/mL	32 µg/mL	32 µg/mL	16 µg/mL	32 µg/mL	125 µg/mL	125 µg/mL	MIC (Str. pneumoniae A-9585): 0.25 µg/mL; MIC (Pr. vulgaris A-9716): 16 µg/mL; MIC (Proteus rettgeri A21203): 16 µg/mL; ED50 (S. aureus A9537): 0.63 mg/kg; concentration at 10 min ([5]; 10 minutes after IM 40 mg/kg): 36500 ng/mL; concentration at 20 min ([5]; 20 minutes after IM 40 mg/kg): 39900 ng/mL; concentration at 0.5 h ([5]; 30 minutes after IM 40 mg/kg): 31500 ng/mL; concentration at 0.75 h ([5]; 45 minutes after IM 40 mg/kg): 16500 ng/mL; concentration at 1 h ([5]; 60 minutes after IM 40 mg/kg): 11500 ng/mL; concentration at 1.5 h ([5]; 90 minutes after IM 40 mg/kg): 5700 ng/mL; concentration at 2 h ([5]; 120 minutes after IM 40 mg/kg): 3100 ng/mL
CSCC1=C(C(=O)O)N2C(=O)C[C@H]2S1 [Preparation 9, 2-Methylthiomethylpenem-3-carboxylic Acid]	0.25 µg/mL (≈ 1.08 µM)	0.5 µg/mL (≈ 2.16 µM)	63 µg/mL	8 µg/mL (≈ 34.6 µM)	8 µg/mL	32 µg/mL	1 µg/mL (≈ 4.32 µM)	> 125 µg/mL	16 µg/mL (≈ 69.2 µM)	> 125 µg/mL	1 µg/mL (≈ 4.32 µM)	4 µg/mL (≈ 17.3 µM)	4 µg/mL (≈ 17.3 µM)	4 µg/mL (≈ 17.3 µM)	16 µg/mL (≈ 69.2 µM)	> 125 µg/mL	> 125 µg/mL	Minimum Inhibitory Concentration (M.I.C.) [2]: 4 µg/mL; MIC ([3]; Staphylococcus aureus, read-out: Minimum Inhibitory Concentration (M.I.C.)): 16 µg/mL (≈ 69.2 µM); MIC (Str. faecalis A-20688; Enterococcus faecalis, A20688, Str. faecalis A20688, read-out: Minimum Inhibitory Concentration (M.I.C.)): 63 µg/mL (≈ 272 µM); MIC (E. coli A-20341-1; Escherichia coli, A203411, E. coli A20341-1; overnight 37° C.; read-out: Minimum Inhibitory Concentration (M.I.C.)): 63 µg/mL (≈ 272 µM); MIC [6]: 2 µg/mL (≈ 8.65 µM); Minimum Inhibitory Concentration (M.I.C.) (Ent. cloacae A-9656; Enterobacter cloacae A9656): 8 µg/mL

Source: patent US4272437A, “Antibacterial agents, and 4-thio azetidinone intermediates” (priority 1979, dated 1981)
